In patent publication US12433908B2, “Use of nicotinamide riboside, nicotinic acid riboside, and nicotinamide mononucleotide, reduced nicotinyl compounds, and nicotinoyl compound derivatives in infant formula for healthy development” (ChromaDex, Inc., priority 2016, dated 2025):

Key:
[1] = Stability of NR in liquid (water, milk); type: physicochemical
[2] = Body weight of early-weaned piglets given NR solution; type: in vivo, piglets (Yorkshire/Hampshire crossbred)
Excerpt: Sixteen (n=16) Yorkshire/Hampshire crossbred piglets were obtained from the University of California, Davis Swine Teaching and Research Center and received on lactation day (“LD”) 14. Prior to arrive, the piglets were processed by the suppler between 1-3 days of age by administration of iron and an antibiotic (Excede for swine) as is common practice at the University of California, Davis Swine Facility. It is not common practice at the University of California, Davis Swine Facility to give a second dose of iron and antibiotics unless it becomes necessary.
The piglets were from two litters (litters 15 and 17), weaned at 17 days of age, and randomly placed into one of two groups balanced for litter, sex, and weight. The animals were not acclimated to the facility at arrival and were subsequently acclimated to the test diet administration system. The piglets were weaned into a temperature-controlled room (approximately 27-29° C.) that contained 10 adjacent pens. The piglets were group-housed in the nursery room at the Swine Facility, which is an enclosed room with access restricted to trained personnel. The two groups were separated by one pen containing piglets of similar age.
Each morning enough nicotinamide riboside (NR, I) in water solution was prepared for that day's dose administration according to the dose preparation protocol. At least 5 mL of prepared dose was reserved and immediately frozen after preparation each day for analysis of nicotinamide riboside (NR, I) for the purpose of confirming stability of the dose material. The doses were stored at refrigeration temperature while not in use. Nicotinamide riboside (NR, I) was dosed once per day in the morning and at the same time each day. Piglets in the control group received the same volume of plain water and were dosed on the same schedule.
The daily amount of nicotinamide riboside (NR, I) approximated the dose (33 mg/kg) used in human investigations of efficacy in areas of mitochondrial dysfunction converted to piglet equivalent dose using the body surface area method. See A. B. Nair & S. Jacob, A simple practice guide for dose conversion between animals and human, 7 J. BASIC CLIN. PHARMA 27 (2016), incorporated by reference herein in its entirety.
Starting on Day 1, animals in the nicotinamide riboside (NR, I) group were dosed once daily (in the morning) with 277 mg nicotinamide riboside (NR, I) per pig resuspended in water for seven days. After one week, animals were dosed once daily with 342 mg nicotinamide riboside (NR, I) per pig delivered in 2.5 mL for seven days. For Days 1 and 2, the nicotinamide riboside (NR, I) solution was prepared by resuspending 2770 mg nicotinamide riboside (NR, I) in 50 mL water, and 5 mL of this solution was delivered to each pig by squirting it into the back of the mouth using a 10 mL syringe with a piece of tubing attached to the end. To reduce the volume to more efficiently deliver the nicotinamide riboside (NR, I) solution, the 2770 mg was resuspended in 25 mL water and 2.5 mL of the solution was squirted into the back of the mouth of each pig using a 3 mL syringe for Days 3-7. […]
All animals were weighed at weaning (baseline) and after one and two weeks of nicotinamide riboside (NR, I) supplementation. Fecal and activity scores were recorded daily using the scales listed below. Weights and fecal scores were analyzed using a two-factor repeated measures ANOVA (mixed-model ANOVA) with p values<0.05 considered significant. […]

[3] = Fecal and activity scores of piglets given NR solution; type: in vivo, piglets (Yorkshire/Hampshire crossbred); details: for Activity Score: scale 4=alert, attentive to 1=very lethargic; for Fecal Score: scale 4=normal (solid) to 1=severe diarrhea (liquid)
Excerpt: Sixteen (n=16) Yorkshire/Hampshire crossbred piglets were obtained from the University of California, Davis Swine Teaching and Research Center and received on lactation day (“LD”) 14. Prior to arrive, the piglets were processed by the suppler between 1-3 days of age by administration of iron and an antibiotic ([…] for swine) as is common practice at the University of California, Davis Swine Facility. It is not common practice at the University of California, Davis Swine Facility to give a second dose of iron and antibiotics unless it becomes necessary. The piglets were from two litters (litters 15 and 17), weaned at 17 days of age, and randomly placed into one of two groups balanced for litter, sex, and weight. The animals were not acclimated to the facility at arrival and were subsequently acclimated to the test diet administration system. The piglets were weaned into a temperature-controlled room (approximately 27-29° C.) that contained 10 adjacent pens. The piglets were group-housed in the nursery room at the Swine Facility, which is an enclosed room with access restricted to trained personnel. The two groups were separated by one pen containing piglets of similar age. Each morning enough nicotinamide riboside (NR, I) in water solution was prepared for that day's dose administration according to the dose preparation protocol. At least 5 mL of prepared dose was reserved and immediately frozen after preparation each day for analysis of nicotinamide riboside (NR, I) for the purpose of confirming stability of the dose material. The doses were stored at refrigeration temperature while not in use. Nicotinamide riboside (NR, I) was dosed once per day in the morning and at the same time each day. Piglets in the control group received the same volume of plain water and were dosed on the same schedule. Starting on Day 1, animals in the nicotinamide riboside (NR, I) group were dosed once daily (in the morning) with 277 mg nicotinamide riboside (NR, I) per pig resuspended in water for seven days. After one week, animals were dosed once daily with 342 mg nicotinamide riboside (NR, I) per pig delivered in 2.5 mL for seven days. For Days 1 and 2, the nicotinamide riboside (NR, I) solution was prepared by resuspending 2770 mg nicotinamide riboside (NR, I) in 50 mL water, and 5 mL of this solution was delivered to each pig by squirting it into the back of the mouth using a 10 mL syringe with a piece of tubing attached to the end. To reduce the volume to more efficiently deliver the nicotinamide riboside (NR, I) solution, the 2770 mg was resuspended in 25 mL water and 2.5 mL of the solution was squirted into the back of the mouth of each pig using a 3 mL syringe for Days 3-7. For Days 8-14, 3420 mg nicotinamide riboside (NR, I) was resuspended in 25 mL water and 2.5 mL of this solution was delivered to each pig. Each day prior to dosing, 2.5 mL of the nicotinamide riboside (NR, I) (5 mL on Days 1 and 2) were placed into a separate tube and frozen. All animals were weighed at weaning (baseline) and after one and two weeks of nicotinamide riboside (NR, I) supplementation. Fecal and activity scores were recorded daily using the scales listed below. Weights and fecal scores were analyzed using a two-factor repeated measures ANOVA (mixed-model ANOVA) with p values<0.05 considered significant. The fecal consistency scale used is as follows: 4=normal (solid); 3=soft feces (semi-solid); 2=mild diarrhea (semi liquid); 1=severe diarrhea (liquid).

[4] = Wk 1, 277 mg/pig once daily oral
[5] = Wk 2, 342 mg/pig once daily oral Days 8-14

stability in milk ([1]; cow's milk and human breast milk): stable in milk | stability in water ([1]; in water): unstable over time | fecal scores, NR vs. control ([3]; 2-week intervention): not statistically different | Activity Score ([3]; Baseline, before dosing): 4.0 | Fecal Score ([3]; Baseline, before dosing): 3.78 ± 0.39 | Activity Score [3, 4]: 4.0 | Fecal Score [3, 4]: 2.93 ± 0.67 | Activity Score [3, 5]: 4.0 | Fecal Score [3, 5]: 2.90 ± 0.60
Compound: NC(=O)c1ccc[n+]([C@@H]2O[C@H](CO)[C@@H](O)[C@H]2O)c1 [NR, Nicotinamide riboside]
health, nutritional quality, normal growth of piglets weaned 7 days early ([2]; 2-week feeding of NR): did not negatively impact the health, nutritional quality, or normal growth | Weight ([2]; Baseline, before dosing): 7.77 ± 1.33 kg | body weight, NR vs. control ([2]; Week 1 or Week 2 of treatment): no differences in body weight | Weight [2, 4]: 8.33 ± 1.56 kg | Weight [2, 5]: 9.39 ± 1.61 kg
